In patent US20230181684A1, “NOVEL ANTIBIOTIC COMPOSITIONS AND METHODS OF MAKING OR USING THE SAME” (priority 2020, published 2023):
In brackets after ≈: the same amount, converted by molar mass. Numbered stars: 1 amine (or outer) side, 2 acyl side, 3 side chain; on linkers, the order of the positions; unused ones are H or OH. Bridge positions count the residues as written; N and C are the ends. Square brackets hold non-standard residues; d marks the D form. Peptide text beside a SMILES is read from it. * marks the point of attachment. Hpg(αMan(1-2)αMan) = N[C@H](C(=O)O)c1ccc(O[C@H]2O[C@H](CO)[C@@H](O)[C@H](O)[C@@H]2O[C@H]2O[C@H](CO)[C@@H](O)[C@H](O)[C@@H]2O)cc1; Octa(2Z,4E)dienoyl(7-Me) = CC(C)C/C=C/C=C\C(=O)*; X1 = NC(=O)[C@@H](O[*:3])[C@H](N[*:1])C(=O)[*:2]; X3 = O=C([C@@H](N[*:1])c1cc(O)cc(O)c1)[*:2]; Hpg(3-Cl) = N[C@H](C(=O)O)c1ccc(O)c(Cl)c1; d(aThr) = C[C@@H](O)[C@@H](N)C(=O)O; dHpg = N[C@@H](C(=O)O)c1ccc(O)cc1; Hpg = N[C@H](C(=O)O)c1ccc(O)cc1; aThr = C[C@H](O)[C@H](N)C(=O)O; dOrn = NCCC[C@@H](N)C(=O)O; X2 = CC(C)CCCCCCC(=O)*

What was measured:
E. coli ATCC 25922 = system: E. coli ATCC 25922
Method: (§1) Assessment of antimicrobial activity of chersinamycin: Chersinamycin was examined for its ability to inhibit bacterial growth by broth microdilution assays against Gram-positive strains B. subtilis ATCC 6051, S. aureus ATCC 25923, and E. faecalis ATCC 29212 and Gram-negative strain E. coli ATCC 25922.
(§2) Minimal inhibitory assays. Antibacterial activity of chersinamycin and positive controls (vancomycin, ampicillin, and ramoplanin A2) were determined by the broth microdilution assay method. Briefly, bacterial strains were grown in cation-adjusted Mueller-Hinton broth. A microtiter plate was prepared by coating wells in 0.2% BSA, and antimicrobial peptides were added with 2-fold dilution steps ranging from 64-0.125 μg mL^−1. Bacteria was added to a final concentration of 10^5 colony forming units and final volume of 100 μL. Plates were incubated at 37° C. for 24 hours, and the MIC was read as the lowest peptide concentration for which no bacterial growth was visualized. Reported values are the average of two replicates.

Gram-positive strains = test: Broth microdilution, Gram-positive strains overall; assay type: cell-based; settings: Gram-positive strains B. subtilis ATCC 6051, S. aureus ATCC 25923, E. faecalis ATCC 29212
Method: as §1, §2

[1] = 1% triethylamine in water, room temperature
Source text: Macrolactone selective hydrolysis. […] The solution was allowed to sit at room temperature for one hour, and then analyzed by MALDI-TOF. After determining that the reaction had gone to completion by complete consumption of the starting material, the reaction mixture was dried and reconstituted in a water/acetonitrile mixture for further MS/MS analyses.

[2] = system: Gram-positive bacterial infections; settings: cited from earlier work
[3] = system: vancomycin-susceptible and vancomycin-resistant C. difficile strains; settings: cited from earlier work
[4] = delivered intravenously; cited from earlier work
E. faecalis ATCC 29212 = settings: ATCC 29212, 24 h
Method: as §1, §2

S. aureus ATCC 25923 = settings: ATCC 25923, 24 h
Method: as §1, §2

B. subtilis ATCC 6051 = settings: ATCC 6051, 24 h
Method: as §1, §2

[5] = administered by intraperitoneal injection; cited from earlier work
[6] = cited from earlier work
[7] = Boger alanine scan comparators; cited from earlier work

## CC(C)CCCCCCC(=O)N[C@@H](CC(N)=O)C(=O)N[C@@H]1C(=O)N[C@H](c2ccc(O)cc2)C(=O)N[C@H](CCCN)C(=O)N[C@H]([C@@H](C)O)C(=O)N[C@@H](c2ccc(O)cc2)C(=O)N[C@H](c2ccc(O)cc2)C(=O)N[C@@H]([C@H](C)O)C(=O)N[C@@H](Cc2ccccc2)C(=O)N[C@H](CCCN)C(=O)N[C@@H](c2ccc(O[C@H]3O[C@H](CO)[C@@H](O)[C@H](O)[C@@H]3O[C@H]3O[C@H](CO)[C@@H](O)[C@H](O)[C@@H]3O)cc2)C(=O)N[C@H]([C@@H](C)O)C(=O)N[C@@H](c2cc(O)cc(O)c2)C(=O)NCC(=O)N[C@@H](C(C)C)C(=O)N[C@H](C)C(=O)N[C@@H](c2ccc(O)c(Cl)c2)C(=O)O[C@@H]1C(N)=O [Chersinamycin, chersinamycin] (X2-N[X1][dHpg][dOrn][d(aThr)][Hpg][dHpg][aThr]F[dOrn][Hpg(αMan(1-2)αMan)][d(aThr)][X3]GV[dA][Hpg(3-Cl)]; ester 2-C; N-terminus assumed)
E. coli ATCC 25922; Gram-negative strain E. coli ATCC 25922
  ability to inhibit bacterial growth, in words: ineffective
Gram-positive strains
  ability to inhibit bacterial growth, in words: potent antimicrobial activity
[1]
  stability of peptide macrocycle to base: highly base labile

## CC(C)C/C=C/C=C\C(=O)N[C@@H](CC(N)=O)C(=O)N[C@@H]1C(=O)N[C@H](c2ccc(O)cc2)C(=O)N[C@H](CCCN)C(=O)N[C@H]([C@@H](C)O)C(=O)N[C@@H](c2ccc(O)cc2)C(=O)N[C@H](c2ccc(O)cc2)C(=O)N[C@@H]([C@H](C)O)C(=O)N[C@@H](Cc2ccccc2)C(=O)N[C@H](CCCN)C(=O)N[C@@H](c2ccc(O[C@H]3O[C@H](CO)[C@@H](O)[C@H](O)[C@@H]3O[C@H]3O[C@H](CO)[C@@H](O)[C@H](O)[C@@H]3O)cc2)C(=O)N[C@H]([C@@H](C)O)C(=O)N[C@@H](c2ccc(O)cc2)C(=O)NCC(=O)N[C@@H](CC(C)C)C(=O)N[C@H](C)C(=O)N[C@@H](c2ccc(O)c(Cl)c2)C(=O)O[C@@H]1C(N)=O [Ramoplanin, ramoplanin A2] ({Octa(2Z,4E)dienoyl(7-Me)}-N[X1][dHpg][dOrn][d(aThr)][Hpg][dHpg][aThr]F[dOrn][Hpg(αMan(1-2)αMan)][d(aThr)][Hpg]GL[dA][Hpg(3-Cl)]; ester 2-C)
[2]
  MICs in vitro: 0.125 to 2 µg/mL
[3]
  MICs in vitro against C. difficile: 0.25 to 0.50 µg/mL
[4]
  hemolysis: mild to moderately hemolytic
E. faecalis ATCC 29212
  MIC: 0.5 µg/mL (≈ 0.196 µM)
S. aureus ATCC 25923
  MIC: 0.5 µg/mL (≈ 0.196 µM)
E. coli ATCC 25922; ATCC 25922, 24 h
  MIC: >64 µg/mL
B. subtilis ATCC 6051
  MIC: <0.125 µg/mL
[5]
  stability of macrolactone: susceptible to hydrolysis
[6]; in vivo, po
  oral absorption: not orally absorbed
[6]; oral delivery
  colonic concentrations: > 300 µg/mL

## [Dap2]-ramoplanin A2 aglycon [[Dap2]-ramoplanin aglycon]
[7]
  MIC: 0.07 µg/mL

## ramoplanin A2 aglycon
[7]
  MIC: 0.11 µg/mL
